Data taken from paper PMC4121097, “Glioma-Associated Antigen HEATR1 Induces Functional Cytotoxic T Lymphocytes in Patients with Glioma” (Journal of Immunology Research, 2014).

target: T1, HLA-A∗02:01 on T2 cells (Homo sapiens, UniProt P04439, D140Y/D185E/D98H/E176V/E277Q/G131W/G231S/I119V/I121R/I166T/I218V/L300P/L318F/N151K/N90K/P208A/P217A/Q86G/Q94H/R138H/R169H/T345S); test: T2-cell-peptide binding test (peptide-induced HLA-A∗02:01 expression, flow cytometry); settings: peptide 20 μg/mL, 4 h, Figure 2(b)
T1 construct: measuring peptide-induced expression of HLA-A∗02:01 on T2 cells using flow cytometry; host or cells: T2 cells (human, TAP1/TAP2-deficient)
Experimental: The binding activity of selected peptides to the HLA-A∗02 molecule was determined semiquantitatively by measuring peptide-induced expression of HLA-A∗02:01 on T2 cells using flow cytometry. The T2 cells were incubated for 4 h with the candidate peptides, respectively, at a concentration of 20 μg/mL in SFM. After being washed with phosphate buffered saline-fetal calf serum (PBS-FCS), the T2 cells were incubated with supernatant containing murine mAb against HLA-A∗02:01 derived from BB7.2 cells for 30 min at 4°C. The T2 cells were washed twice with PBS-FCS and stained with 5 μg/mL diluted fluorescein isothiocyanate-conjugated immunoglobulin G which reacts to mouse immunoglobulin for 30 min. The cells were then rinsed three times with PBS-FCS and analyzed using a FACSAria flow cytometer. The percent mean fluorescence index (% MFI) increase of HLA-A∗02:01 molecules was calculated as follows: % MFI increase = [(MFI with peptide − MFI without peptide)]/(MFI without peptide) × 100 [27].

affinity for binding to HLA-A∗02 (in words) | Sequence
lower affinity | FLFDTQHFI [HEATR1_2003–2011]
lowest affinity | FLWILLILL [HEATR1_1411–1419]
highest affinity | KMVEDLISV [HEATR1_682–690]

same assay, conditions: peptide 20 μg/mL, 4 h in SFM, BB7.2 anti-HLA-A∗02:01 mAb, mean ± SE of three independent experiments, SEM

percentage of MFI increase of HLA-A∗02:01 [%] | Sequence
287.2 ± 7.7 | KLLRMLFDL [HEATR1_1126–1134]
308.5 ± 4.8 | KMVEDLISV [HEATR1_682–690]
285.2 ± 49.2 | LLPESIPFL [HEATR1_2102–2110]
228.7 ± 5.4 | LMLDRGIPV [HEATR1_757–765]

system: PBMCs from healthy donors and patients with glioma; test: IFN-γ ELISpot assay with PBMCs; assay type: cell-based, human; settings: PBMCs from five HLA-A∗02+ patients with GBM and one control patient with benign tumor, Figure 4
Experimental: A human IFN-γ ELISpot kit (552138; BD Pharmingen, CA) was used to quantify the CTL response in PBMCs. Several 96-well plates were coated with purified anti-human IFN-γ monoclonal antibodies at the concentration of 5 μg/mL at 100 μL/well and incubated at 4°C overnight and then washed once with 200 μL/well of RPMI-1640 containing 10% FBS and 1% penicillin-streptomycin-L-glutamine (R10) and blocked with 200 μL/well R10 for 2 h at room temperature. PBMCs were then washed twice with R10 and resuspended in R10 complete culture medium. After being counted, the cells were then adjusted to the concentration of 1 × 10^6 cells/mL and plated onto a 96-well ELISpot plate at 50 μL/well (5 × 10^4 cells/well) with the addition of 50 μL of the peptide. The final concentration of each peptide was 5 μg/mL. The 96-well ELISpot plates were incubated for about 20 h at 37°C in 5% CO2. After incubation, the ELISpot plates were developed according to the kit instructions. Finally, the plates were air-dried and the resulting spots were counted with ChampSpot IV Bioreader (Beijing SAGE Creation Science, Beijing, China). Peptide-specific IFN-γ ELISpot responses were considered positive only when the number of spots was twofold greater than the control peptide stimulation and there were >50 spots per 1 × 10^6 PBMCs.

Sequence | ELISpot response to individual peptide (in words)
KLLRMLFDL [HEATR1_1126–1134] | higher than the others
KMVEDLISV [HEATR1_682–690] | higher than the others
LMLDRGIPV [HEATR1_757–765] | highest ELISpot response
